Here are results for 2 compounds from EP2072050A1, “Compounds with anti-emetic effect” (Santhera Pharmaceuticals (Schweiz) AG, priority 2007, dated 2009).

For experiment [1], the system named is cisplatin induced emesis in the ferret. Put plainly: cisplatin-induced emesis in the ferret. The format is in vivo. The following applies: for anti-emetic effect (in words): emesis model in the ferret, compound A 30 and 100 mg/kg, ondansetron 16 mg/kg; for Number of Emesis periods / Number of Retches / Number of Vomits: 3 h observation. The text has this: The preferred model to assess an anti emetic potential in animals is the cisplatin-induced emesis in the ferret in which the effects of 5HT3A and NK1 antagonists have been thoroughly investigated. The method, which detects antiemetic activity, follows that described by Gardner et al (Brit. J. Pharmacol., 116, 3158-3163, 1995).
Sixty minutes before administration of the test substance, ferrets are placed in individual stainless steel cages (40 x 50 x 34 cm) with a grid floor. Then, the animals are challenged with cisplatin (10 mg/kg i.p.), and immediately observed over a 3-hour period for: • Number of ferrets showing retches and vomits; • Latency to first retching (h:min:s); • Latency to first vomiting (h:min:s); • Retching (number of retches); • Vomiting (number of vomits); • Number of emesis periods; • Mean duration of emesis periods (min:s); • Severe behavioral side effects. Retching is defined as a rhythmic respiratory movement against a closed glottis, while vomiting is defined as a forced expulsion of upper gastrointestinal contents.
The assay as described above was used to evaluate the anti emetic effects of melanocortin-4 receptor antagonists.
Eight ferrets were studied per group. The test substance was evaluated at two doses (30 and 100 mg/kg), administered p.o. 90 minutes before cisplatin, and compared with an appropriate vehicle control group (vehicle administered 90 minutes before cisplatin).
Quantitative data was analyzed by comparing treated groups with vehicle control using unpaired Student's t tests.
Comparison between treated groups and vehicle control was done using Mann-Whitney U tests.

Experiment [2] addresses MC-4 receptor (Homo sapiens, UniProt P32245). Put plainly: block of the MC-4 receptor (internal finding, no method given).
The mark [3] stands for this setting: group mean (8 ferrets), Compound A 30 mg/kg p.o. 1.5 h before cisplatin 10 mg/kg i.p.
Where [4] appears, read: group mean (8 ferrets), Compound A 100 mg/kg p.o. 1.5 h before cisplatin 10 mg/kg i.p.
[5] abbreviates: individual animal, Compound A 30 mg/kg p.o. 1.5 h before cisplatin 10 mg/kg i.p.
[6] abbreviates: individual animal, Compound A 100 mg/kg p.o. 1.5 h before cisplatin 10 mg/kg i.p.
Setting [7] is: group mean (8 ferrets), Ondansetron 16 mg/kg p.o. 1 h before cisplatin 10 mg/kg i.p.
Setting [8] is: individual animal, Ondansetron 16 mg/kg p.o. 1 h before cisplatin 10 mg/kg i.p.

Molecules are shown by their SMILES. Several values for one entry are separate records, joined by “and”; a condition that tells them apart may be missing. Identical values can stand only once.

MC-4 receptor, sequence (P32245 whole entry): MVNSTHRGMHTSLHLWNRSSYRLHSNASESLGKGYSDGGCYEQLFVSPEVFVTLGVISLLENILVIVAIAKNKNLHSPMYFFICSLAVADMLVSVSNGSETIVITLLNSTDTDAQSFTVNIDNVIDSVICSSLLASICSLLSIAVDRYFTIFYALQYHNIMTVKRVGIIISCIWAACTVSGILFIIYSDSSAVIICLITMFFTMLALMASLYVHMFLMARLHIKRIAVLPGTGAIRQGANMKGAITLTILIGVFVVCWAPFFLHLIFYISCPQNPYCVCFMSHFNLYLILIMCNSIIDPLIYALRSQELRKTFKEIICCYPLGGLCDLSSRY

Take `CC[C@H](COc1cccnc1C1CCN(C(=O)[C@@H](Cc2ccc(Cl)cc2Cl)NC(=O)N2CCCC2)CC1)N1CCCC1` [Compound A]: the “anti-emetic effect (in words)” value in experiment [1] is “pronounced anti-emetic properties”. In addition, the “Number of Emesis periods” value in experiment [1] (setting [3]) is 6.4; in experiment [1] (setting [4]), 2.3; in experiment [1] (setting [5]), 14 and 4 and 7 and 0 (2×) and 3 and 13 and 10; in experiment [1] (setting [6]), 5 and 0 (4×) and 1 and 8 and 4. The “Number of Retches” value was 64.4 in experiment [1] (setting [3]); 19.9 in experiment [1] (setting [4]); 156 and 26 and 90 and 0 (2×) and 41 and 118 and 84 in experiment [1] (setting [5]); 28 and 0 (4×) and 10 and 83 and 38 in experiment [1] (setting [6]). Further, the “Number of Vomits” value in experiment [1] (setting [3]) was 2.4; in experiment [1] (setting [4]) it was 0.8; in experiment [1] (setting [5]) it was 9 and 0 (3×) and 2 (2×) and 1 and 5; in experiment [1] (setting [6]), 2 (3×) and 0 (5×).
Turning to `Cc1nccn1CC1CCc2c(c3ccccc3n2C)C1=O` (stereo not shown) [Ondansetron, ondansetron, reference compound], the “anti-emetic effect (in words)” value in experiment [1] is listed as “clear anti-emetic effect”. Further, in experiment [1] (setting [7]), the “Number of Emesis periods” value is listed as 5.0, the “Number of Retches” value was determined as 41.1 and the “Number of Vomits” value stood at 1.9. In experiment [1] (setting [8]), the “Number of Emesis periods” value was 0 (4×) and 14 (2×) and 3 and 9; the “Number of Retches” value was 0 (4×) and 113 and 26 and 56 and 134; the “Number of Vomits” value was 0 (5×) and 2 and 6 and 7. In experiment [2], the “block of the MC-4 receptor” value is on record as “doesn't block”; the “separation between 5HT3 and MC-4” value is “more than 10000 fold”.
